Entries after “also recorded” stand apart in the source; their conditions may differ.
Key:
[1] = test system: A549 cells; assay: MTT cytotoxicity assay, A549; format: cell-based, human; conditions: Homo sapiens, A549; MTT, 24 h incubation; read-out: IC50 µM ± SD against A549
Excerpt: A549 cell line (lung carcinoma from human) (European Collection of Cell Culture) and HT-29 cell line (colorectal adenocarcinoma from human) (American Type Culture Collection) were chosen to evaluate the cytotoxicity of novel compounds.
The MTT assay was used to evaluate cell metabolic activity. The test principle is based on the determination of cell viability by measuring the metabolic activity in mitochondria. Enzymatically active mitochondria reduce the water-soluble MTT (3-(4,5-dimethylthiazol-2-yl)-2,5 diphenyltetrazoliumbromide) to blue–violet insoluble formazan. The number of viability cells is proportional to the colour intensity determined by photometric measurements (an analytical wavelength 570 nm) after dissolving the formazan in Dimethylsulfoxide (DMSO) (Serva) and Sorensen’s glycine buffer. MTT (Sigma Aldrich) was dissolved in Phosphate Buffered Saline (PBS) (PAN-Biotech) at a concentration of 0.5 mg/mL. Sorensen’s glycine buffer is made of 0.1 M glycine and 0.1 M NaCl, at pH 10.5. Studied compounds were dissolved in DMSO in order to receive stock solutions.
For the assay, cells were seeded into 96-well plates at density 10^4 cells per well and cultured for 24 h at 37 °C and 5% CO2. Then medium was removed, and cells were exposed to the 100 µL of the compound solutions over a range of concentrations (final DMSO concentration was below 0.2%) or nothing but culture medium (blank control). Pure DMSO was used as a positive control. After 24 h of incubation with the compound solutions, medium was removed and 50 µL of the MTT solution was added to each well and incubated in the dark for additional 2 h at 37 °C. Then the MTT solution was carefully removed and 100 µL of DMSO was added. Plates were incubated for 10 min at room temperature. Finally, 5 µL of Sorensen Buffer was added to each well. Plate was swayed, and the absorbance was measured by using microplate reader (Synergy H1, BioTek, Winooski, VT, USA) at a wavelength of 570 nm. The cell viability was expressed as a percentage of the control values (blank). The experiments were done in triplicate.

[2] = test system: A549 cells; assay: Apoptosis assay by annexin-V/PI double staining, A549; format: cell-based, human; conditions: A549, 24 h, compound at 2xIC50 (1i 29.74 µM); control 7.80%
Procedure: Compounds were added to the cells and further incubated for 24 h. After treatment, monolayer and supernatant cells were harvested, washed with PBS and centrifuged (monolayer at 1200 rpm for 10 min, supernatant at 3500 rpm for 10 min). Then, cells were re-suspended in binding buffer and stained with 2 µL of Annexin-V and […] of PI (ANNEXIN-V—FITC Apoptosis Detection Kit, Immunostep) in the dark for 10 min at room temperature. Cells were analysed by BD Accuri C6 Flow Cytometry (Becton–Dickinson). Etoposide (Calbiochem) was used as a reference drug. Experiments were done in triplicates.

[3] = test system: PARP-1; assay: Western blot of PARP-1 cleavage, A549; format: cell-based, human; conditions: A549, 24 h, IC50 and 1/2IC50
Procedure: Then, cells were treated with chosen compounds. After 24 h of incubation, monolayer and supernatant were harvested and washed in cold PBS. Cells were centrifuged—monolayer at 1200 rpm for 10 min, supernatant 3500 rpm for 10 min. Pellets were dissolved in RIPA Lysis and Extraction buffer (Bio-Rad) containing Phosphatase Inhibitor Cocktail 3 (Sigma Aldrich) and Protease Inhibitor Cocktail (Sigma Aldrich). Samples were incubated in ice for 30 min and mixed every 10 min. Then, samples were centrifuged at 12,000 rpm for 25 min. Protein concentration in supernatants was measured in triplicate using a Protein Assay (Bio-Rad). Proteins were separated by SDS–polyacrylamide gel electrophoresis. Separating and stacking gels were made of different ratios of water, Tris–HCl pH 6.8 and pH 8.8, 10% SDS (Sigma Aldrich), Acrylamide/bis-acrylamide (Sigma Aldrich), 10% APS (Sigma Aldrich), TEMED (Sigma Aldrich). 7.5% gels were prepared for analysis PARP-1, whereas 12% gels prepared for γ-H2AX. After separation on SDS–polyacrylamide gels, proteins were electroblotted on nitrocellulose membrane in Transfer Buffer (Glycine, Tris, Methanol). Membranes were washed in TBS/0.1% or 0.05% Tween20 solution and blocked in Tris-buffered saline with 5% of non-fated dried milk for 1 h. Membranes were then incubated overnight with primary antibodies—anti-PARP-1 (Cell Signaling Technology), anti-γ-H2A.X (Cell Signaling Technology), anti-β-actin (Cell Signaling Technology) in cold room (6 °C). After incubation, membranes well washed with TBS/Tween solution and blocked with and horseradish peroxidase-conjugated secondary antibodies (Bio-Rad) for 1 h in cold room. Protein bands were visualized using ECL™ Prime Western Blotting Detection Reagents (Sigma Aldrich) Healthcare and Carestream Kodak autoradiography GBX fixer/replenisher (Sigma Aldrich) with Developer and Replenisher (Carestream) in the dark room. Results were obtained on Autoradiography Film (Santa Cruz Biotechnology). Densitometric analysis was performed by using a software program (ImageJ). […]

[4] = test system: SH-SY5Y cells; assay: Cytoprotection against H2O2 (100 µM), MTT; conditions: for Cells viability (%) ± SD after 24 h of incubation with compound and H2O2: H2O2 100 µM, H2O2 only 82.74%
[5] = test system: supercoiled pUC19 DNA; conditions: 100 µM; human Topoisomerase I
[6] = molecular target: T1, hyaluronidase from bovine testes Type I-S (Bos taurus, UniProt Q2YDK3); assay: Hyaluronidase inhibition assay (turbidimetric); format: biochemical; conditions: read-out: HYAL IC50 ± SD
T1 construct: purchased Sigma Aldrich; host or cells: bovine testes (tissue-derived preparation)
T1 sequence (Q2YDK3 36-553): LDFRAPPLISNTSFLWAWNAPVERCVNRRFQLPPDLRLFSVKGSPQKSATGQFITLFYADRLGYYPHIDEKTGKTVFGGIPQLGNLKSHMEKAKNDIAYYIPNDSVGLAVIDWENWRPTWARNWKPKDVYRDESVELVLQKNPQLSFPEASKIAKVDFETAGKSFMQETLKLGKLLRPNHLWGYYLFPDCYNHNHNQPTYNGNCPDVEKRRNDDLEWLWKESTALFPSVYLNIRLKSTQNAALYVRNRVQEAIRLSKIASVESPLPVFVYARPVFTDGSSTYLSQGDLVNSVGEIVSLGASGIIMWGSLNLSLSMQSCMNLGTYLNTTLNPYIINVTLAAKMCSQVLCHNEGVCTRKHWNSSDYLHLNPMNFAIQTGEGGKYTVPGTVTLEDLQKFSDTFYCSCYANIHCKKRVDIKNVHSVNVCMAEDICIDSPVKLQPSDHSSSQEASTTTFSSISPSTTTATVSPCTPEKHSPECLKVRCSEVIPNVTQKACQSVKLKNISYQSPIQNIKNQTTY

[7] = Homo sapiens, 24 h, read-out: Cells viability (%) ± SD after 24 h of incubation with compound and H2O2

Intercalation: supercoiled pUC19 DNA band (in words) [5] | SMILES | IC50 [1] | Total apoptotic cells [2] | Cleaved PARP-1 (89 kDa) level (in words) [3] | Cells viability (%) ± SD after 24 h of incubation with compound and H2O2 ([4]; concentration: 1b 16.26, 1c 6.79, 1e 11.75, 1f 4.26, 1i 5.90 µM) | Cells viability (%) ± SD after 24 h of incubation with compound and H2O2 ([4]; concentration: 1b 65.04, 1c 27.16, 1e 46.98, 1f 17.04, 1i 29.74 µM) | viability at 1 µM [4, 7] | IC50 [6] | Neuroprotection against H2O2 (in words) ([4]; H2O2 100 µM, 29.74, 14.87, 5.90 and 1 µM) | viability at 5.9 µM [4, 7] | viability at 14.87 µM [4, 7] | viability at 29.74 µM [4, 7]
bands at the same level as EB | O=C(NCCCCNc1c2c(nc3ccccc13)CCCC2)c1ccccc1I [Compound 1c] | 59.1 ± 5.86 µM | – | – | – | – | 101 ± 1.19% | 244 ± 7.95 µM | – | – | – | –
bands at the same level as EB | O=C(NCCCNc1c2c(nc3ccccc13)CCCC2)c1cccc(I)c1 [Compound 1e] | 23.5 ± 2.6 µM | 44.96% | comparable apoptotic effect at their IC50 concentrations; also recorded: highest PARP-1 cleavage was observed for 1/2IC50 (11.75 µM) | – | – | 89.8 ± 8.55% | 231 ± 5.64 µM | – | – | – | –
– | O=C(NCCCCNc1c2c(nc3ccccc13)CCCC2)c1ccc(I)cc1 [Compound 1i] | 14.9 ± 1.06 µM | 71.98% | highest effect | – | – | 29.7 ± 3.39% | 234 ± 8.98 µM | neuroprotection was not observed at any dose | 25.9 ± 1.24% | 20.7 ± 1.45% | 18.7 ± 1.25%

SMILES | Intercalation: supercoiled pUC19 DNA band (in words) [5] | IC50 [1] | Total apoptotic cells [2] | Cleaved PARP-1 (89 kDa) level (in words) [3] | Cells viability (%) ± SD after 24 h of incubation with compound and H2O2 ([4]; concentration: 1b 16.26, 1c 6.79, 1e 11.75, 1f 4.26, 1i 5.90 µM) | Cells viability (%) ± SD after 24 h of incubation with compound and H2O2 ([4]; concentration: 1b 65.04, 1c 27.16, 1e 46.98, 1f 17.04, 1i 29.74 µM) | viability at 1 µM [4, 7] | IC50 [6] | Neuroprotection against H2O2 (in words) ([4]; H2O2 100 µM, 29.74, 14.87, 5.90 and 1 µM) | viability at 5.9 µM [4, 7] | viability at 14.87 µM [4, 7] | viability at 29.74 µM [4, 7]
O=C(NCCCNc1c2c(nc3ccccc13)CCCC2)c1ccccc1I [Compound 1b] | bands at the same level as EB | 32.5 ± 2.25 µM | 45.31% | comparable apoptotic effect at their IC50 concentrations | 64.61 ± 4.88 % | 17.21 ± 1.18 % | 99.2 ± 1.67% | 233 ± 4.87 µM | – | – | – | –
